Data as given in ChEMBL document CHEMBL3817735 (J Med Chem, 2016).

How the values were obtained:
[1] = tested on: Influenza A virus; experiment: Antiviral activity against Influenza A virus (A/duck/Tsukuba/67/2005(H1N1)) infected in MDCK cells preincubated for 1 hr followed by infection measured after 19 to 20 hrs by galactosidase-based fluorescence assay and peroxidase-based chromogenic assay; type: functional, organism-based
[2] = tested on: Influenza A virus; experiment: Antiviral activity against Influenza A virus (A/mallard/Hokkaido/24/2009(H5N1)) infected in MDCK cells preincubated for 1 hr followed by infection measured after 19 to 20 hrs by galactosidase-based fluorescence assay and peroxidase-based chromogenic assay; type: functional, organism-based
[3] = tested on: Influenza A virus; experiment: Antiviral activity against Influenza A virus (A/duck/Tsukuba/28/2005(H6N2)) infected in MDCK cells preincubated for 1 hr followed by infection measured after 19 to 20 hrs by galactosidase-based fluorescence assay and peroxidase-based chromogenic assay; type: functional, organism-based
[4] = tested on: Influenza A virus; experiment: Antiviral activity against Influenza A virus (A/duck/Tsukuba/394/2005(H5N3)) infected in MDCK cells preincubated for 1 hr followed by infection measured after 19 to 20 hrs by galactosidase-based fluorescence assay and peroxidase-based chromogenic assay; type: functional, organism-based
[5] = tested on: Influenza A virus; experiment: Antiviral activity against Influenza A virus (A/duck/Tsukuba/20/2007(H8N4)) infected in MDCK cells preincubated for 1 hr followed by infection measured after 19 to 20 hrs by galactosidase-based fluorescence assay and peroxidase-based chromogenic assay; type: functional, organism-based
[6] = tested on: Influenza A virus; experiment: Antiviral activity against Influenza A virus A/duck/Chiba/13/06(H12N5) infected in MDCK cells preincubated for 1 hr followed by infection measured after 19 to 20 hrs by galactosidase-based fluorescence assay and peroxidase-based chromogenic assay; type: functional, organism-based
[7] = tested on: Influenza A virus; experiment: Antiviral activity against Influenza A virus (A/duck/Shiga/8/2004(H4N6)) infected in MDCK cells preincubated for 1 hr followed by infection measured after 19 to 20 hrs by galactosidase-based fluorescence assay and peroxidase-based chromogenic assay; type: functional, organism-based
[8] = tested on: Influenza A virus; experiment: Antiviral activity against Influenza A virus (A/duck/Tsukuba/700/2007(H7N7)) infected in MDCK cells preincubated for 1 hr followed by infection measured after 19 to 20 hrs by galactosidase-based fluorescence assay and peroxidase-based chromogenic assay; type: functional, organism-based
[9] = tested on: Influenza A virus; experiment: Antiviral activity against Influenza A virus (A/duck/Tsukuba/28/2006(H3N8)) infected in MDCK cells preincubated for 1 hr followed by infection measured after 19 to 20 hrs by galactosidase-based fluorescence assay and peroxidase-based chromogenic assay; type: functional, organism-based
[10] = tested on: Influenza A virus; experiment: Antiviral activity against Influenza A virus A/duck/Tsukuba/441/05(H11N9) infected in MDCK cells preincubated for 1 hr followed by infection measured after 19 to 20 hrs by galactosidase-based fluorescence assay and peroxidase-based chromogenic assay; type: functional, organism-based
[11] = tested on: Influenza A virus; experiment: Antiviral activity against Influenza A virus (A/California/04/2009(H1N1)) infected in dog AX4 cells preincubated for 1 hr followed by infection measured after 19 to 20 hrs by galactosidase-based fluorescence assay and peroxidase-based chromogenic assay; type: functional, organism-based
[12] = tested on: Influenza A virus; experiment: Antiviral activity against Influenza A virus (A/Narita/1/2009(H1N1)) infected in dog AX4 cells preincubated for 1 hr followed by infection measured after 19 to 20 hrs by galactosidase-based fluorescence assay and peroxidase-based chromogenic assay; type: functional, organism-based
[13] = tested on: Influenza A virus; experiment: Antiviral activity against Influenza A virus A/Yamaguchi/20/06(H1N1) infected in dog AX4 cells preincubated for 1 hr followed by infection measured after 19 to 20 hrs by galactosidase-based fluorescence assay and peroxidase-based chromogenic assay; type: functional, organism-based
[14] = tested on: Influenza A virus; experiment: Antiviral activity against Influenza A virus A/Kitakyushu/10/06(H1N1) infected in dog AX4 cells preincubated for 1 hr followed by infection measured after 19 to 20 hrs by galactosidase-based fluorescence assay and peroxidase-based chromogenic assay; type: functional, organism-based
[15] = tested on: Influenza A virus; experiment: Antiviral activity against Influenza A virus (A/Aichi/75/2008(H3N2)) infected in dog AX4 cells preincubated for 1 hr followed by infection measured after 19 to 20 hrs by galactosidase-based fluorescence assay and peroxidase-based chromogenic assay; type: functional, organism-based
[16] = tested on: Influenza A virus; experiment: Antiviral activity against Influenza A virus (A/Aichi/102/2008(H3N2)) infected in dog AX4 cells preincubated for 1 hr followed by infection measured after 19 to 20 hrs by galactosidase-based fluorescence assay and peroxidase-based chromogenic assay; type: functional, organism-based
[17] = target: T1, Sialidase-3 (Homo sapiens, UniProt Q9UQ49); experiment: Inhibition of human Neu3 expressed in HEK293T cells using GM3 as substrate incubated for 30 mins by HPLC analysis; type: cell-based, HEK-293T
T1 sequence (Q9UQ49 whole entry): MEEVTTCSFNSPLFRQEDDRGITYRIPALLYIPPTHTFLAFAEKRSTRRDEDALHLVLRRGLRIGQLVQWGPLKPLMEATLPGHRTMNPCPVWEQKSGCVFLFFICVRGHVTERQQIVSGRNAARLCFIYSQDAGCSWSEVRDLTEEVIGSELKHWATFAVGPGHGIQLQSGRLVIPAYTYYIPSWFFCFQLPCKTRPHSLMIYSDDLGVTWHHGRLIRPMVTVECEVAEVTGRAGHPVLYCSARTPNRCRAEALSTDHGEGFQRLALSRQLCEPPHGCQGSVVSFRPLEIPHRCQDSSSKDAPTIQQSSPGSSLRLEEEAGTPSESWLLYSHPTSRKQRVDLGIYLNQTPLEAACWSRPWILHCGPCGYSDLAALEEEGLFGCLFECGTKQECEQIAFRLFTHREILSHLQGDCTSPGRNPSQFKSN

[18] = target: Sialidase-1 (Homo sapiens, UniProt Q99519); experiment: Inhibition of human Neu1 expressed in HEK293T cells using 4MU-Neu5Ac as substrate incubated for 30 mins by HPLC analysis; type: cell-based, HEK-293T
[19] = target: T2, Sialidase-4 (Homo sapiens, UniProt Q8WWR8); experiment: Inhibition of human Neu4 expressed in HEK293T cells using 4MU-Neu5Ac as substrate incubated for 30 mins by HPLC analysis; type: cell-based, HEK-293T
T2 sequence (Q8WWR8 whole entry): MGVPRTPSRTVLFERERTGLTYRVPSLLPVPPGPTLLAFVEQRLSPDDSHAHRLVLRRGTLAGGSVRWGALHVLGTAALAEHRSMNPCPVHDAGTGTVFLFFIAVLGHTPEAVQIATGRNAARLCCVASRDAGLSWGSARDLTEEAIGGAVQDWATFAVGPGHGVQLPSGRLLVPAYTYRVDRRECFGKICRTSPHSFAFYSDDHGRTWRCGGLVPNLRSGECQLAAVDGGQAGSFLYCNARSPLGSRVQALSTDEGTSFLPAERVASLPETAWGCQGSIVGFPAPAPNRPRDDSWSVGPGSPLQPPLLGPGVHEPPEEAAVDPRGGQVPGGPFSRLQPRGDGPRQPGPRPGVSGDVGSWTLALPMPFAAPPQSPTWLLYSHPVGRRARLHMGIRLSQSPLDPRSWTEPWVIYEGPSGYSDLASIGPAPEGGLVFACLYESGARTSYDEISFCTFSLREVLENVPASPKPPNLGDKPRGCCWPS

[20] = target: T2, Sialidase-4; experiment: Inhibition of human Neu4 expressed in HEK293T cells using GM3 as substrate incubated for 30 mins by HPLC analysis; type: cell-based, HEK-293T
[21] = tested on: MDCK; experiment: Cytotoxicity against MDCK cells at 0.064 to 1000 uM incubated for 24 hrs by cell counting analysis; type: cell-based, Canis lupus familiaris; settings: dog
[22] = Cytotoxicity against dog AX4 cells at 0.064 to 1000 uM incubated for 24 hrs by cell counting analysis; type: cell-based, Canis lupus familiaris; settings: ax4, 24 h
[23] = target: T3, Neuraminidase (Influenza A virus, UniProt B4URF0); experiment: Inhibition of Influenza A virus (A/duck/Tsukuba/67/2005(H1N1)) neuraminidase N1 activity using 4MU-Neu5Ac as substrate preincubated for 15 mins followed by substrate addition measured after 15 mins by fluorescence analysis
[24] = target: T3, Neuraminidase; experiment: Inhibition of Influenza A virus (A/duck/Tsukuba/28/2005(H6N2)) neuraminidase N2 activity using 4MU-Neu5Ac as substrate preincubated for 15 mins followed by substrate addition measured after 15 mins by fluorescence analysis
[25] = target: T3, Neuraminidase; experiment: Inhibition of Influenza A virus (A/duck/Tsukuba/394/2005(H5N3)) neuraminidase N3 activity using 4MU-Neu5Ac as substrate preincubated for 15 mins followed by substrate addition measured after 15 mins by fluorescence analysis

T3 sequence (B4URF0 whole entry): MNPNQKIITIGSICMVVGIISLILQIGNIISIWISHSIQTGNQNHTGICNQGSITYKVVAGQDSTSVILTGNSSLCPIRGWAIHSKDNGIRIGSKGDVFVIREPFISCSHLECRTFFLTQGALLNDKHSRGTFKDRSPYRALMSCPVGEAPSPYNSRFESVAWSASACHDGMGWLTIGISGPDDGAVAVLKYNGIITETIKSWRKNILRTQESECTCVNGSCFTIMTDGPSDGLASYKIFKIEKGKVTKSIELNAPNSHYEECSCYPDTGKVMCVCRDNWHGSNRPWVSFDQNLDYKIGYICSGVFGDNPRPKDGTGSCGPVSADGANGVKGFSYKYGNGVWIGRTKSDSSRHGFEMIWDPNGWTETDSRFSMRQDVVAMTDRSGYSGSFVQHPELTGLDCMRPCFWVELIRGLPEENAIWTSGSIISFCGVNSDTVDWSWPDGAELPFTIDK

Structure (SMILES) | IC50 [1] | IC50 [2] | IC50 [3] | IC50 [4] | IC50 [5] | IC50 [6] | IC50 [7] | IC50 [8] | IC50 ([9]; Influenza A virus, MDCK) | IC50 [10] | IC50 [11] | IC50 [12] | IC50 [13] | IC50 [14] | IC50 [15] | IC50 [16] | IC50 [17] | IC50 [18] | IC50 [19] | IC50 [20] | also measured
CCC(CC)OC[C@@H]1CC(C(=O)O)=C[C@H](N)[C@H]1NC(C)=O | 0.00758 µM | 0.0282 µM | 0.00085 µM | 0.00228 µM | 0.005 µM | 0.00364 µM | 0.00087 µM | 0.00474 µM | 0.00551 µM | 0.0129 µM | 0.0003 µM | 0.00028 µM | 0.00171 µM | 3.91 µM | 0.07 nM | 0.04 nM | – | – | – | – | –
CC(=O)N[C@H]1[C@H]([C@H](O)[C@H](O)CNC(=O)C2CC2)OC(C(=O)O)=C[C@@H]1NC(=N)N.O=C(O)C(F)(F)F | 0.049 µM | 0.396 µM | 0.0118 µM | 0.0382 µM | 0.197 µM | 0.0293 µM | 0.0248 µM | 0.276 µM | 0.163 µM | 0.3 µM | 0.00604 µM | 0.00486 µM | 0.0276 µM | 0.106 µM | 1.34 nM | 1.27 nM | > 1000 µM | > 1000 µM | > 1000 µM | > 1000 µM | Activity [21]: Non-toxic; Activity [22]: Non-toxic
CCCCC(=O)NC[C@@H](O)[C@@H](O)[C@@H]1OC(C(=O)O)=C[C@H](NC(=N)N)[C@H]1NC(C)=O.O=C(O)C(F)(F)F | 2.25 µM | 8.3 µM | 0.448 µM | 5.87 µM | 5.67 µM | 25.6 µM | 1.1 µM | 5.02 µM | 47.7 µM | 5.5 µM | 0.136 µM | 0.127 µM | 0.39 µM | 0.337 µM | 24.7 nM | 40.2 nM | > 1000 µM | > 700 µM | > 700 µM | > 700 µM | Activity [21]: Non-toxic; Activity [22]: Non-toxic
CC(=O)N[C@H]1[C@H]([C@H](O)[C@H](O)CO)OC(C(=O)O)=C[C@@H]1O [NEU5AC2EN] | – | – | – | – | – | – | – | – | – | – | – | – | – | – | – | – | 50 µM | – | – | – | IC50 [23]: 1 µM; IC50 [24]: 1 µM; IC50 [25]: 1 µM
CC(=O)N[C@H]1[C@H]([C@H](O)[C@H](O)CO)OC(C(=O)O)=C[C@@H]1NC(=N)N [ZANAMIVIR] | 0.00273 µM | 0.0156 µM | 0.0065 µM | 0.0119 µM | 0.00933 µM | 0.0288 µM | 0.0109 µM | 0.0584 µM | – | 0.065 µM | – | – | – | – | – | – | – | > 1000 µM | – | – | IC50 ([9]; mdck): 0.0167 µM
